Measured values taken from paper PMC10663540, “Structure-based discovery of dual pathway inhibitors for SARS-CoV-2 entry” (Nature Communications, 2023).
“And” between values parts separate entries of the source, which are not always exact repeats. Equal entries are not always repeated. Where two headings read alike, the source gives them in different places.

Tests used:
human CTSL = target: T1, human CTSL (Homo sapiens, UniProt P07711); experiment: FRET enzymatic inhibition assay of CTSL (IC50 measurement); type: biochemical
T1 construct: made in house
T1 sequence (P07711 114-333): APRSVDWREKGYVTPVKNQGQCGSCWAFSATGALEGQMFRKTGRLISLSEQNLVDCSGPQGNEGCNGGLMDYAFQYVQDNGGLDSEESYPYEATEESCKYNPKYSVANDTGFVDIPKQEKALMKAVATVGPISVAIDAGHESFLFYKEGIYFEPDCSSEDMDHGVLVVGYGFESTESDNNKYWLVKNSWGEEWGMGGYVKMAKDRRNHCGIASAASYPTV

human CTSB = target: T2, human CTSB (Homo sapiens, UniProt P07858); experiment: biochemical
T2 construct: […]; made in house

Calu-3 cells = conditions: rep1-rep3
in vitro = conditions: human
[1] = 0.0762939 nM, rep1-rep4, 7.62939e-05 µM
[2] = 0.152588 nM, rep1-rep4, 0.000152588 µM
[3] = 0.610352 nM, rep1-rep4, 0.000610352 µM
[4] = 1.2207 nM, rep1-rep4, 0.0012207 µM
[5] = 2.44141 nM, rep1-rep4, 0.00244141 µM
[6] = 4.88281 nM, rep1-rep4, 0.00488281 µM
[7] = 9.76562 nM, rep1-rep4, 0.00976562 µM
[8] = 19.5312 nM, rep1-rep4, 0.0195312 µM
[9] = 39.0625 nM, rep1-rep4, 0.0390625 µM
[10] = 78.125 nM, rep1-rep4, 0.078125 µM
[11] = 156.25 nM, rep1-rep4, 0.15625 µM
[12] = substrate Cbz-Phe-Arg-AMC, pH 5.5, mean ± SD, four replicates

With `CCOC(=O)C1OC1C(=O)NC(CC(C)C)C(=O)NCCC(C)C` (stereo not shown) [E64d] the “Inhibition: CTSL” value (human CTSL; [1]) was 2.24% and 3.63% and 1.98% and 0.98%, the “Inhibition: CTSL” value (human CTSL; [2]) was 2.65% and 3.08% and 2.24% and -1.44% and the “Inhibition: CTSL” value (human CTSL; [3]) was 0.22% and 3.41%. For the same compound, the “Inhibition: CTSL” value (human CTSL; [4]) was 6.37% and 4.18%, the “Inhibition: CTSL” value (human CTSL; [5]) was 4.98% and 7.04% and 0.43% and 3.83% and the “Inhibition: CTSL” value (human CTSL; [6]) was 0.11% and 3.42% and 5.91% and 2.54%. The “Inhibition: CTSL” value (human CTSL; [7]) was 8.11% and 8.13% and 3.91% and 9.27%, the inhibition at 0.0195312 µM (human CTSL; 19.5312 nM, rep1-rep4) was 10.1% and the “Inhibition: CTSL” value (human CTSL; [8]) was 17.79% and 9.24% and 15.72%. For the same compound, the inhibition at 0.0390625 µM (human CTSL; 39.0625 nM, rep1-rep4) was 26.6%, the “Inhibition: CTSL” value (human CTSL; [9]) was 23.44% and 25.85% and 26.69% and the inhibition at 0.078125 µM (human CTSL; 78.125 nM, rep1-rep4) was 45.2%. The “Inhibition: CTSL” value (human CTSL; [10]) was 44.64% and 44.43% and 46.07%, the inhibition at 0.15625 µM (human CTSL; 156.25 nM, rep1-rep4) was 72.7% and the “Inhibition: CTSL” value (human CTSL; [11]) was 70.94% and 71.67% and 71.32%. The inhibition at 0.3125 µM (human CTSL; 312.5 nM, rep1-rep4) was 93.6%, the “Inhibition: CTSL” value (human CTSL; 312.5 nM, rep1-rep4, 0.3125 µM) was 93.64% and 93.89% and 93.96% and the inhibition at 0.625 µM (human CTSL; 625 nM, rep1-rep4) was 99.2%. The “Inhibition: CTSL” value (human CTSL; 625 nM, rep1-rep4, 0.625 µM) was 99.81% and 99.40% and 99.47%, the inhibition at 1.25 µM (human CTSL; 1250 nM, rep1-rep4) was 100% and the “Inhibition: CTSL” value (human CTSL; 1250 nM, rep1-rep4, 1.25 µM) was 100.20% and 99.89%. For the same compound, the inhibition at 2.5 µM (human CTSL; 2500 nM, rep1-rep4) was 99.2%, the “Inhibition: CTSL” value (human CTSL; 2500 nM, rep1-rep4, 2.5 µM) was 100.15% and 100.23% and 99.74% and the inhibition at 5 µM (human CTSL; 5000 nM, rep1-rep4) was 99.9%. For the same compound, the “Inhibition: CTSL” value (human CTSL; 5000 nM, rep1-rep4, 5 µM) was 100.31% and 99.95%, the inhibition at 10 µM (human CTSL; 10000 nM, rep1-rep4) was 100% and the “Inhibition: CTSL” value (human CTSL; 10000 nM, rep1-rep4, 10 µM) was 100.02% and 99.97%. The IC50 (human CTSL; [12]) was 0.0889 µM, the “Inhibition: CTSB” value (human CTSB; [1]) was 3.40% and 10.64% and 11.97% and 5.82% and the “Inhibition: CTSB” value (human CTSB; [4]) was -7.91% and 0.42% and 2.07% and 0.65%. For the same compound, the inhibition at 0.15625 µM (human CTSB; 156.25 nM, rep1-rep4) was 35.3%, the “Inhibition: CTSB” value (human CTSB; [11]) was 44.31% and 44.26% and 38.99% and the inhibition at 0.3125 µM (human CTSB; 312.5 nM, rep1-rep4) was 56.2%. The “Inhibition: CTSB” value (human CTSB; 312.5 nM, rep1-rep4, 0.3125 µM) was 62.85% and 55.87% and 62.55%, the inhibition at 0.625 µM (human CTSB; 625 nM, rep1-rep4) was 80.1% and the “Inhibition: CTSB” value (human CTSB; 625 nM, rep1-rep4, 0.625 µM) was 80.11% and 80.88% and 83.45%. For the same compound, the inhibition at 1.25 µM (human CTSB; 1250 nM, rep1-rep4) was 98.7%, the “Inhibition: CTSB” value (human CTSB; 1250 nM, rep1-rep4, 1.25 µM) was 92.94% and 89.91% and 97.77% and the inhibition at 2.5 µM (human CTSB; 2500 nM, rep1-rep4) was 95.4%. For the same compound, the “Inhibition: CTSB” value (human CTSB; 2500 nM, rep1-rep4, 2.5 µM) was 107.12% and 95.70% and 101.34%, the inhibition at 5 µM (human CTSB; 5000 nM, rep1-rep4) was 105% and the “Inhibition: CTSB” value (human CTSB; 5000 nM, rep1-rep4, 5 µM) was 104.22% and 97.92% and 95.52%. For the same compound, the inhibition at 10 µM (human CTSB; 10000 nM, rep1-rep4) was 97.9%, the “Inhibition: CTSB” value (human CTSB; 10000 nM, rep1-rep4, 10 µM) was 102.20% and 95.59% and 101.48% and the IC50 (human CTSB; [12]) was 0.244 µM. The Cytotoxicity (Calu-3 cells; 0.017 μM) was 7.45% and 7.84% and 8.16%, the Cytotoxicity (Calu-3 cells; 0.05 μM) was 11.45% and 12.03% and 11.72% and the Cytotoxicity (Calu-3 cells; 0.15 μM) was 9.87% and 10.28% and 10.63%. For the same compound, the Cytotoxicity (Calu-3 cells; 0.46 μM) was 7.15% and 7.70% and 8.12%, the Cytotoxicity (Calu-3 cells; 4.1 μM) was 1.63% and 2.06% and 2.63% and the Cytotoxicity (Calu-3 cells; 12.3 μM) was -0.11% and 0.47% and 0.96%. The Cytotoxicity (Calu-3 cells; 111.1 μM) was -4.79% and -4.14% and -3.55%, the Cytotoxicity (Calu-3 cells; 333.3 μM) was 12.34% and 13.88% and 14.55% and the Cytotoxicity (Calu-3 cells; 1000 μM) was 23.12% and 23.57% and 24.06%. For the same compound, the CC50 (in vitro) was > 1000 µM.

For `CN1CCN(C(=O)N[C@@H](Cc2ccccc2)C(=O)N[C@H](/C=C/S(=O)(=O)c2ccccc2)CCc2ccccc2)CC1` [K777], the “Inhibition: CTSL” value (human CTSL; [1]) was 1.13% and 5.78% and 3.59% and 2.15%, the inhibition at 0.000152588 µM (human CTSL; 0.152588 nM, rep1-rep4) was 5.42% and the “Inhibition: CTSL” value (human CTSL; [2]) was 10.09% and 6.36% and 10.80%. The inhibition at 0.000610352 µM (human CTSL; 0.610352 nM, rep1-rep4) was 9.96%, the “Inhibition: CTSL” value (human CTSL; [3]) was 11.08% and 11.88% and 12.12% and the inhibition at 0.0012207 µM (human CTSL; 1.2207 nM, rep1-rep4) was 14.1%. For the same compound, the “Inhibition: CTSL” value (human CTSL; [4]) was 15.17% and 15.67% and 15.23%, the inhibition at 0.00244141 µM (human CTSL; 2.44141 nM, rep1-rep4) was 27.1% and the “Inhibition: CTSL” value (human CTSL; [5]) was 29.89% and 27.84% and 28.16%. For the same compound, the inhibition at 0.00488281 µM (human CTSL; 4.88281 nM, rep1-rep4) was 46.7%, the “Inhibition: CTSL” value (human CTSL; [6]) was 49.46% and 47.59% and 48.29% and the inhibition at 0.00976562 µM (human CTSL; 9.76562 nM, rep1-rep4) was 73.6%. The “Inhibition: CTSL” value (human CTSL; [7]) was 74.62% and 72.91% and 72.68%, the inhibition at 0.0195312 µM (human CTSL; 19.5312 nM, rep1-rep4) was 93.2% and the “Inhibition: CTSL” value (human CTSL; [8]) was 93.40% and 92.49% and 94.07%. The inhibition at 0.0390625 µM (human CTSL; 39.0625 nM, rep1-rep4) was 99.5%, the “Inhibition: CTSL” value (human CTSL; [9]) was 98.76% and 99.78% and 99.61% and the inhibition at 0.078125 µM (human CTSL; 78.125 nM, rep1-rep4) was 100%. The “Inhibition: CTSL” value (human CTSL; [10]) was 99.93% and 100.35% and 99.32%, the inhibition at 0.15625 µM (human CTSL; 156.25 nM, rep1-rep4) was 100% and the “Inhibition: CTSL” value (human CTSL; [11]) was 100.75% and 100.78%. For the same compound, the inhibition at 0.3125 µM (human CTSL; 312.5 nM, rep1-rep4) was 100%, the “Inhibition: CTSL” value (human CTSL; 312.5 nM, rep1-rep4, 0.3125 µM) was 100.44% and 100.24% and 99.50% and the inhibition at 0.625 µM (human CTSL; 625 nM, rep1-rep4) was 100%. The “Inhibition: CTSL” value (human CTSL; 625 nM, rep1-rep4, 0.625 µM) was 100.05% and 99.89%, the inhibition at 1.25 µM (human CTSL; 1250 nM, rep1-rep4) was 100% and the “Inhibition: CTSL” value (human CTSL; 1250 nM, rep1-rep4, 1.25 µM) was 100.44% and 100.07% and 99.92%. For the same compound, the inhibition at 2.5 µM (human CTSL; 2500 nM, rep1-rep4) was 100%, the “Inhibition: CTSL” value (human CTSL; 2500 nM, rep1-rep4, 2.5 µM) was 100.03% and 100.38% and 100.68% and the inhibition at 5 µM (human CTSL; 5000 nM, rep1-rep4) was 100%. For the same compound, the “Inhibition: CTSL” value (human CTSL; 5000 nM, rep1-rep4, 5 µM) was 100.04% and 100.18% and 100.13%, the inhibition at 10 µM (human CTSL; 10000 nM, rep1-rep4) was 100% and the “Inhibition: CTSL” value (human CTSL; 10000 nM, rep1-rep4, 10 µM) was 100.22% and 100.09% and 99.98%. For the same compound, the Cytotoxicity (Calu-3 cells; 0.017 μM) was 8.99% and 10.05% and 10.29%, the Cytotoxicity (Calu-3 cells; 0.05 μM) was 20.39% and 20.63% and 20.94% and the Cytotoxicity (Calu-3 cells; 0.15 μM) was 17.33% and 17.61% and 17.94%. The Cytotoxicity (Calu-3 cells; 0.46 μM) was 15.43% and 15.73% and 16.02%, the Cytotoxicity (Calu-3 cells; 4.1 μM) was 16.54% and 16.77% and 16.98% and the Cytotoxicity (Calu-3 cells; 12.3 μM) was 18.57% and 18.78% and 19.05%. The Cytotoxicity (Calu-3 cells; 37 μM) was 15.46% and 15.63% and 15.88%, the Cytotoxicity (Calu-3 cells; 111.1 μM) was 60.74% and 60.66% and 60.71% and the Cytotoxicity (Calu-3 cells; 333.3 μM) was 97.79% and 97.81%. It also gave a Cytotoxicity (Calu-3 cells; 1000 μM) of 99.56% and a CC50 (in vitro) of 110 µM.

Work on `N=C(N)c1ccc2cc(OC(=O)c3ccc(N=C(N)N)cc3)ccc2c1` [Nafamostat] yielded a CC50 (in vitro) of 452 µM.
